Laboratory results reported in patent US5312831A, “Urethanes and ureas that induce cytokine production” (American Cyanamid Company, priority 1993, dated 1994).
Read-outs that look alike come from different tables or passages of the source.

Columns and labels:
[1] = test system: bone marrow progenitor cells; experiment: Delta assay: expansion of bone marrow progenitor cells in vitro, with c-kit ligand (KL); format: cell-based, mouse; settings: for fold induction at 0.5 µg/mL: Mus musculus, Bone marrow cell, 168 h, 7 day in vitro incubation, read-out: Fold Increase in CFU
Procedure: Delta Assay--Mice are treated with a single dose of 5-FU (150 mg/kg ip). Twenty-four hours later, bone marrow cells are removed and split into 2 aliquots. […] After 14 days, the number of colonies is determined (CFU-1). A second aliquot of cells is placed in liquid culture with single growth factors or drugs or combinations of each to assess the ability of these agents to expand the colony forming cell pool. After 7 days in liquid culture, these cells are harvested and plated in soft agar with IL-1 and GM-CSF as with the first aliquot. After 14 days the number of colonies in the second aliquot is determined (CFU-2). The ratio or delta is calculated as CFU-2/CFU-1 and this ratio is used to ascertain the ability of the growth factors and/or drugs used in the liquid phase to induce growth of the colony forming cells (CFU) or differentiation of pre-CFU to CFU.
Bone marrow cells from 5-FU treated mice are used to enrich for early progenitor cells. The cells are split into 2 aliquots as described in the methods section for the "delta assay." The fold increase is determined by measuring the effect of a 7 day in vitro incubation of the cells with tissue culture medium plus test compound and/or growth factor KL on colony forming dells (CFU). The number of CFUs are then compared with colony formation of the fresh bone marrow cells that were not incubated in vitro to determine the fold increase. Test compound is used in vitro at 0.5 μg/ml.

IL-6 = experiment: Serum IL-6 production in mice after single s.c. injection (7TD1 bioassay); format: in vivo, mouse; settings: serum 4 h post injection
Procedure: (§1) Description of Biological Assays Interleukin 6(IL-6) assay for structure function analysis--Test compounds are dissolved in water and administered subcutaneously in 0.2 ml to deliver a dose of 0.1-10 mg/kg. The less soluble compounds are first dissolved in 100% ethanol and then brought to the appropriate concentration in water. Four hours post injection, the mice are bled and the serum is retrieved. The IL-6 dependent cell line 7TDl is used to assay serial dilutions of sera for IL-6 content. 7TDl cells (1×10^4) are placed in microtiter wells and incubated at 37° C. for 72 hours with standard recombinant mouse IL-6 or with dilutions of serum to be tested. Over the last 6 hours, the cells are pulsed with ^3 H-Tdr (μci). Cells are then harvested and the degree of proliferation determined by the uptake of ^3 H-Tdr as measured by liquid scintillation spectrometry. The concentration of IL-6 in serum is calculated from standard curves utilizing recombinant IL-6 from R&D Systems Inc. and are reported in units of IL-6 activity as defined by the manufacturer.

GCSF = experiment: Serum GCSF production in mice (NFS-60 bioassay); format: in vivo, mouse; settings: for GCSF: 4 hours, 10 mice/group
Procedure: as §1
Granulocyte colony stimulating factor (GCSF) assay--A bioassay for GCSF is performed in an identical fashion to the IL-6 assay except that the GCSF dependent cell line NFS-60 is used in place of the IL-6 dependent 7TDI cell line.
Mice (10/group) are given a single subcutaneous injection of test compoun
and bled 4 hours later. GCSF levels in serum are determined by bioassay
using the GCSF dependent cell line NFS60.

Which fold induction at 0.5 µg/mL ([1]; KL + test compound (0.5 μg/ml)) does the source give for `CCCCCCC(=O)N[C@@H](C(=O)O)[C@@H](C)OC(=O)N[C@@H](CCC[C@@H](N)C(=O)O)C(=O)N[C@H](C)C(=O)O` [Example 28, [R-(R*,R*)]-N-(R)-6-carboxy-N^2-[[2-carboxy-1-methyl-2-[(1-oxoheptyl)amino]ethoxy]carbonyl]-L-lysyl]-D-Alanine] here?
Its fold induction at 0.5 µg/mL is 158.

What about the fold induction at 0.5 µg/mL ([1]; test compound alone, 0.5 μg/ml, medium alone 0) of the same compound?
Its fold induction at 0.5 µg/mL is 1.3.

What about the “synergy with c-kit ligand (KL) on growth of bone marrow progenitor cells (in words)” value ([1]; in vitro) of the same compound?
The value was “acts synergistically”.

And the IL-6 (IL-6; 0.1 mg/kg s.c.)?
The IL-6 was 4802 ± 804 U/ml.

And the IL-6 (IL-6; 1.0 mg/kg s.c.)?
The IL-6 was 3844 ± 482 U/ml.

And the IL-6 (IL-6; 10.0 mg/kg s.c.)?
Its IL-6 is 1718 U/ml.

And the GCSF (GCSF; 1.56 μg/kg single s.c.)?
The GCSF was 442 ± 52 pg/mL.

And the GCSF (GCSF; 3.12 μg/kg single s.c.)?
The GCSF was 470 ± 59 pg/mL.

And the GCSF (GCSF; 6.25 μg/kg single s.c.)?
The GCSF was 644 ± 267 pg/mL.

What about the GCSF (GCSF; 12.50 μg/kg single s.c.) of the same compound?
Its GCSF is 1342 ± 289 pg/mL.

And the GCSF (GCSF; 25.00 μg/kg single s.c.)?
The GCSF was 3352 ± 907 pg/mL.

And the GCSF (GCSF; 50.00 μg/kg single s.c.)?
Its GCSF is 1249 ± 138 pg/mL.

And the “GCSF induction in the serum of mice (in words)” value (GCSF; injected mice)?
Its value is “induce GCSF in the serum of injected mice”.
